Results reported in PMC13045254, “Dual Targeting of DNA and EGFR by ZYH005 Induces DNA Damage and Mitotic Catastrophe in Glioblastoma” (MedComm, 2026).

Target: T1, epidermal growth factor receptor (EGFR) (Homo sapiens, UniProt P00533)
T1 construct: recombinant EGFR kinase domain
Test: SPR with recombinant kinase domain; supported by CETSA, DARTS and LiP-MS
Assay type: binding

T1 sequence (P00533 712-979 limits assumed): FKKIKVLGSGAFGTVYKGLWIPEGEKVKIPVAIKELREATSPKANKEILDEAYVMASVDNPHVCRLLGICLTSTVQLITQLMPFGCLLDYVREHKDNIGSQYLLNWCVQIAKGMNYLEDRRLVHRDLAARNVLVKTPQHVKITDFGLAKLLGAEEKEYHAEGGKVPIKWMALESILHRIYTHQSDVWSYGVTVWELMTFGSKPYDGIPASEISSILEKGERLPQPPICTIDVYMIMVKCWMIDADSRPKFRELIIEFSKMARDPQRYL

- Kd: 19.6 µM
Compound: COc1ccc(CCn2c(=O)c3cc4c(cc3c3ccccc32)OCO4)cc1 [Z5, ZYH005]
